Laboratory results as given in patent US12344610B2, “APOL1 inhibitors and methods of use” (Maze Therapeutics, Inc., priority 2022, dated 2025).

The compounds below were run on human immortalized podocytes inducibly expressing APOL1 G2 (assay: APOL1 G2 podocyte cell rescue assay (Example B4)). Settings: Homo sapiens, differentiated human podocytes, doxycycline-induced APOL1 G2, CellTiter-Glo; geometric mean of at least 2 runs; † = single run.
Assay type: cell-based
Method in brief: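 Differentiated hTERT-immortalized podocytes (clone D10) with doxycycline-inducible C-terminally HiBiT-tagged APOL1 G2, 6,000 cells/well, treated with doxycycline plus 8-point 3-fold compound series (0.4% DMSO) for 95 h at 37 °C. Viability by CellTiter-Glo luminescence; EC50 as geometric mean of ≥2 runs, each in duplicate.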

Row | SMILES | EC50 [nM]
1 | CC(CO)(c1ncc(OCCN2CCC3(CC2)C(=O)Nc2ccc(Cl)cc23)cc1C(F)(F)F)S(C)(=O)=O (stereo not shown) [Compound 401, 5-chloro-1′-(2-{[6-(1-hydroxy-2-methanesulfonylpropan-2-yl)-5-(trifluoromethyl)pyridin-3-yl]oxy}ethyl)-1,2-dihydrospiro[indole-3,4′-piperidin]-2-one] | 4.62
2 | CC(C)(O)c1ncc(OCCN2CCC3(CC2)C(=O)Nc2ccc(C#N)cc23)cc1C(F)(F)F [Compound 411, 1′-(2-{[6-(2-hydroxypropan-2-yl)-5-(trifluoromethyl)pyridin-3-yl]oxy}ethyl)-2-oxo-1,2-dihydrospiro[indole-3,4′-piperidine]-5-carbonitrile] | 1.45
3 | [2H]C([2H])(Oc1cnc2c(c1)CCC(=O)N2[C@H]1C[C@@](C)(O)C1)C([2H])([2H])N1CCC2(CC1)C(=O)Nc1ccc(Cl)cc12 [Compound 426, 5-chloro-1′-[2-({7-oxo-8-[(cis)-3-hydroxy-3-methylcyclobutyl]-5,6,7,8-tetrahydro-1,8-naphthyridin-3-yl}oxy)(1,1,2,2-^2H4)ethyl]-1,2-dihydrospiro[indole-3,4′-piperidin]-2-one] | 4.1
4 | C[C@]1(O)C[C@@H](n2cc3cc(OCCN4CCC5(CC4)C(=O)Nc4ccc(Cl)cc45)cc(C(F)(F)F)c3n2)C1 [Compound 427, 5-chloro-1′-[2-({2-[(cis)-3-hydroxy-3-methylcyclobutyl]-7-(trifluoromethyl)-2H-indazol-5-yl}oxy)ethyl]-1,2-dihydrospiro[indole-3,4′-piperidin]-2-one] | 1.95
5 | C[C@]1(O)C[C@@H](n2cc3cc(OCCN4CCC5(CC4)C(=O)Nc4ccc(C#N)cc45)cc(C(F)(F)F)c3n2)C1 [Compound 428, 2-oxo-1′-[2-({2-[(cis)-3-hydroxy-3-methylcyclobutyl]-7-(trifluoromethyl)-2H-indazol-5-yl}oxy)ethyl]-1,2-dihydrospiro[indole-3,4′-piperidine]-5-carbonitrile] | 12.2
6 | C[C@]1(O)C[C@@H](n2cnc3cc(OCCN4CCC5(CC4)C(=O)Nc4ccc(C#N)cc45)cc(C(F)(F)F)c32)C1 [Compound 433, 1′-(2-((1-((cis)-3-hydroxy-3-methylcyclobutyl)-7-(trifluoromethyl)-1H-benzo[d]imidazol-5-yl)oxy)ethyl)-2-oxospiro[indoline-3,4′-piperidine]-5-carbonitrile] | 2.13
7 | C[C@]1(O)C[C@@H](n2nnc3cc(OCCN4CCC5(CC4)C(=O)Nc4ccc(Cl)cc45)cc(C(F)(F)F)c32)C1 [Compound 434, 5-chloro-1′-[2-({1-[(cis)-3-hydroxy-3-methylcyclobutyl]-7-(trifluoromethyl)-1H-1,2,3-benzotriazol-5-yl}oxy)ethyl]-1,2-dihydrospiro[indole-3,4′-piperidin]-2-one] | 1.5
8 | C[C@]1(O)C[C@@H](n2nnc3cc(OCCN4CCC5(CC4)C(=O)Nc4ccc(C#N)cc45)cc(C(F)(F)F)c32)C1 [Compound 435, 2-oxo-1′-[2-({1-[(cis)-3-hydroxy-3-methylcyclobutyl]-7-(trifluoromethyl)-1H-1,2,3-benzotriazol-5-yl}oxy)ethyl]-1,2-dihydrospiro[indole-3,4′-piperidine]-5-carbonitrile] | 2.94
9 | C[C@]1(O)C[C@@H](n2cnc3cc(OCCN4CCC5(CC4)C(=O)Nc4ccc(Cl)cc45)cc(C#N)c32)C1 [Compound 439, 5-(2-{5-chloro-2-oxo-1,2-dihydrospiro[indole-3,4′-piperidin]-1′-yl}ethoxy)-1-[(cis)-3-hydroxy-3-methylcyclobutyl]-1H-1,3-benzodiazole-7-carbonitrile] | 3.92
10 | C[C@]1(O)C[C@@H](n2nnc3cc(OCCN4CCC5(CC4)C(=O)Nc4ccc(Cl)cc45)cnc32)C1 [Compound 440, 5-chloro-1′-[2-({3-[(cis)-3-hydroxy-3-methylcyclobutyl]-3H-[1,2,3]triazolo[4,5-b]pyridin-6-yl}oxy)ethyl]-1,2-dihydrospiro[indole-3,4′-piperidin]-2-one] | 15
